The values that follow come from US20170252323A1, “4-[2-(Dipropylamino)ethyl]-1,3-dihydro-2H-indol-2-one (Ropinirole) a New Inhibitor of Jack bean Urease Enzyme: An Example of Drug Repurposing” (priority 2016, published 2017).

SMILES strings stand for the structures. Where two headings read alike, the source gives them in different places.

Test [1] deals with Jack bean (Canavalia ensiformis) urease (Canavalia ensiformis, UniProt P07374). The test is described as follows: biochemical. An excerpt: Each point in the constructed graphs represents the mean of the three experiments.
The target in a further test is urease enzyme (Canavalia ensiformis, UniProt P07374). The test is described as follows: Mechanistic studies (Lineweaver-Burk, secondary replot, Dixon plot). The settings on record: Lineweaver-Burk and Dixon plots; substrate 0.5-4.0 mM; Ropinirole 5, 10, 20 μM. In kind it is biochemical. The protocol:
Mechanistic studies were carried out to determine the mechanism of inhibition of 4-[2-(dipropylamino)ethyl]-1,3-dihydro-2H-indol-2-one ( Ropinirole) of the enzyme urease. In brief, urease enzyme solution (1 U/200 μL) was incubated with different concentrations of Ropinirole for 15 min at 30° C. The reaction was then initiated by adding different concentrations of substrate (0.5-4.0 mM), then phenol and alkali reagent were added and change in absorbance was measured for 50 minutes at 630 nm on microtitre plate reader (SpectraMax M5, Molecular Devices, Calif., USA). The Lineweaver-Burk plot was used to determine the type of inhibition, while secondary replot of Lineweaver-Burk plot and Dixon plots were used for the determination and confirmation of dissociation constants (Ki).
The EZ-Fit enzyme kinetics program (Perrella Scientific Inc., Amherst, USA) was employed to calculate the IC50 values. All graphs were plotted by using Grafit 7 (Erithacus Software Limited, UK). Values of the correlation coefficients, intercepts, slopes, and their standard errors were calculated by the linear regression analysis by using the same program. Each point in the constructed graphs represents the mean of the three experiments.

Chain of Jack bean (Canavalia ensiformis) urease (P07374 whole entry, looked up): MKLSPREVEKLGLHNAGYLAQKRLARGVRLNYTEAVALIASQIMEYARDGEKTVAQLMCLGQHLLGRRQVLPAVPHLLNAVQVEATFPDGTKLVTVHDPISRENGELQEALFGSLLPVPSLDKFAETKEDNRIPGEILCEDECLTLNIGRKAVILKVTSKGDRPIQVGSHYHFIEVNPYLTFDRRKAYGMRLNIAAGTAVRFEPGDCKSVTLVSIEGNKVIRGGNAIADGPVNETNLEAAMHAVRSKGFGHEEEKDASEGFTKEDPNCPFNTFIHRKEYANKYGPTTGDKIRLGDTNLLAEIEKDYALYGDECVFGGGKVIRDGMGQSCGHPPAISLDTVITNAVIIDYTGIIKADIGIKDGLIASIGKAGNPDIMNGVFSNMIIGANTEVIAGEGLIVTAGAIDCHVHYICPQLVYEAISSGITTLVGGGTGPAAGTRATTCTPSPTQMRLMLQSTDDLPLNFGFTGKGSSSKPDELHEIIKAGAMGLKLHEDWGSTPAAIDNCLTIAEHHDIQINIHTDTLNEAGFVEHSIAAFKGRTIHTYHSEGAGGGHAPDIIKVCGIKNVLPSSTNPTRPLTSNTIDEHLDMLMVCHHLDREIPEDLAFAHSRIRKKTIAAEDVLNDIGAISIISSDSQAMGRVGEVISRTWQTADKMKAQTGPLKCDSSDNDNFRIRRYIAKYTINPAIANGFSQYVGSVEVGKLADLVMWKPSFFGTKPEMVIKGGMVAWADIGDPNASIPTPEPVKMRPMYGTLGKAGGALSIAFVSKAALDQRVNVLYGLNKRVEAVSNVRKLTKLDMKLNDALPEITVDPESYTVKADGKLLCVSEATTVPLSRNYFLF
Chain of urease enzyme (P07374 whole entry, looked up): as above

For `CC(=O)NO` [acetohydroxamic acid], the IC50 in test [1] (Jack bean urease, 100 mM urea, pH 6.8, 30° C., 15 min, triplicate, read-out: IC50 (urease inhibition)) came out at 41.5 ± 1.5 µM. Regarding `CCCN(CCC)CCc1cccc2c1CC(=O)N2` [Ropinirole, 4-[2-(Dipropylamino)ethyl]-1,3-dihydro-2H-indol-2-one], the type of inhibition entry on urease enzyme was “mixed-type of inhibitor”. The molecule also registered an IC50 in test [1] of 11.7 ± 0.46 µM.

One may read the IC50 as the concentration that gives 50% inhibition.
